# Literature values as cited in patent publication US20110201579A1, “Method of Improving the Overall Health of a Patient by Application of Pregnenolone” (priority 2010, published 2011).
# Columns and labels:
# [1] = individuals with rheumatoid arthritis
# [2] = some people
# [3] = rodents
SMILES,improvement of rheumatoid arthritis [1],"energy, vision, memory, clarity of thinking, wellbeing, sexual enjoyment or libido [2]",memory [3]
C[C@]12CCC(=O)C=C1CC[C@@H]1[C@@H]2[C@@H](O)C[C@@]2(C)[C@H]1CC[C@]2(O)C(=O)CO [cortisol],outstanding short-term improvements,–,–
"CC(=O)[C@H]1CC[C@H]2[C@@H]3CC=C4C[C@@H](O)CC[C@]4(C)[C@H]3CC[C@]12C [pregnenolone, Pregnenolone]",–,"improves energy, vision, memory, clarity of thinking, wellbeing, and often sexual enjoyment or libido",one of the most effective and powerful memory boosters
